Several values for one entry are separate records, joined by “and”; a condition that tells them apart may be missing. Equal entries are not always repeated. Where two headings read alike, the source gives them in different places.
What was measured:
[1] = test system: HIV-1; assay: microbe, parasite or virus in culture; details: for IC50: Human immunodeficiency virus 1, PBMC
Experimental: IC50 values were determined, and a persistence ratio was calculated for each compound. GFP, green fluorescent protein; hpi, hours post-infection; IC50, half maximal inhibitory concentration.
Assay media in each well were then evacuated and the cells resuspended using the gentle setting on the BlueWasher (BlueCatBio; Lebanon, NH, USA). Centrifugation and wash steps were repeated to ensure removal of extracellular compound.
MT4-GFP cells were infected with WT R8 virus, and PBMCs were infected with pNLG1-P2A-GFP. […] IC50 values were determined by nonlinear 4-parameter curve fitting of the data. A persistence ratio was calculated for each compound by dividing the IC50 from variable B (IC50B) by the IC50 from variable A (IC50A).

[2] = CellTiter-Glo (CTG) cytotoxicity in MT4-GFP cells; details: human
[3] = test system: HIV-1; details: HIV-1, PBMCs; read-out: PBMC IC50; cited from earlier work
[4] = test system: HIV-1; assay: microbe, parasite or virus in culture
[5] = target: T1, HIV RT (Human immunodeficiency virus type 1 group M subtype B, UniProt P04585); assay: Iron footprinting assay of RT translocation state; format: biochemical; details: 1 µM MK-8527-TP or ISL-TP, 5 µM ddATP; absence or presence of dTTP
T1 construct: HIV RT (final concentration, 1,200 nM)
Experimental: The translocation state of RT was assessed with a site-specific iron footprinting assay adapted from previous work. Primer and template used for this assay are described in Fig 7A. The presence of Fe^2+ ions in the reaction generated hydroxyl radicals that cleaved the DNA template in a site-specific manner at the nucleotide closest to the RNase H active site. In addition to an RT inhibitor in the reaction, dTTP, the subsequent dNTP, was provided in dose titration to force the translocation of the 3′-primer terminus from the pre-translocation N-site to the post-translocation P-site.
(final concentration, 1 µM), or ddATP (final concentration, 5 µM), Td43/Pd30 pre-annealed primer and template (final concentration, 200 nM based on Cy3-labeled Td43 concentration), and dTTP titrated at various concentrations. All reagent stocks were in a base assay buffer consisting of 120 mM Tris pH 7.5, 20 mM NaCl, and 6 mM MgCl2 in nuclease-free water. […] The reaction was then heated to 37 °C for 5 min before quenching 1:1 with gel-loading dye followed by heating at 95 °C for 10 min. Samples were stored at −20 °C until being resolved by polyacrylamide gel electrophoresis with 7 M urea.

[6] = target: T1, HIV RT; assay: HIV-RT primer extension assay (chain termination); format: biochemical; details: 1 µM each dNTP
Experimental: The reaction protocol was adapted from previous work. Primers and template used for this assay are described in Fig 8A.
All reagent stocks were in a base assay buffer consisting of 50 mM Tris pH 7.5 and 50 mM NaCl in nuclease-free water. […] Samples were then heated to 95 °C for 10 min prior to storage at −20 °C until being resolved by polyacrylamide gel electrophoresis with 7 M urea.

[7] = test system: MT4-GFP cells; assay: CellTiter-Glo (CTG) cytotoxicity in MT4-GFP cells; details: read-out: MT4-GFP CTG CC50, CellTiter-Glo
[8] = test system: HIV-1
[9] = test system: HIV-1; assay: Single-cycle antiviral assay in PBMCs; format: cell-based; details: HIV-1, single-cycle assay, human PBMCs, 10% NHS; read-out: PBMC IC50
Experimental: To evaluate the ability of inhibitors to prevent HIV-1 infection in primary cells, human PBMCs obtained from Biological Specialty Corporation (Colmar, PA, USA) were used to assess antiviral activity. The proviral variants used for these studies were generated by site-directed mutagenesis in a proviral vector derived from NL43 [52] that encodes GFP (pNLG1-P2A-GFP). Virus was produced by transfection in 293T cells.
PBMCs were activated with phytohemagglutinin (PHA) at 5 μg/mL in Roswell Park Memorial Institute (RPMI) 1640 medium containing 10% heat-inactivated fetal bovine serum (FBS) for 2–3 days. Compound plates were prepared by dispensing compounds dissolved in DMSO into 384-well poly-d-lysine-coated plates (0.2 μL per well) using an Echo acoustic dispenser (Labcyte; San Jose, CA, USA). Each compound was tested in a 10-point serial 3-fold dilution (typical final concentrations: 5,000 to 0.1 nM). Controls included no inhibitor (DMSO only) and a combination of 3 antiviral agents, efavirenz, indinavir, and the integrase strand transfer inhibitor, L-002254051, at final concentrations of 4 μM each. PHA-activated human PBMCs were washed and resuspended in RPMI 1640 containing 10% NHS and 30 units per mL of interleukin-2 (IL-2) at 6 × 10^5 cells per mL. PBMCs were added to the compound plates and cultured for 24 h at 37 °C, 5% CO2, and 90% humidity. The appropriate HIV-1 variant was added to the PBMCs and cultured at 37 °C, 5% CO2, and 90% humidity for an additional 24 h.
HIV-1–infected cells were quantified by counting the number of GFP cells in each well using an Acumen eX3 scanner (SPT Labtech; Melbourn, UK).

[10] = test system: HIV-1; assay: Multicycle antiviral assay in MT4-GFP cells; format: cell-based; details: WT HIV-1, multicycle assay, 10% NHS
Experimental: Compounds were evaluated for their ability to prevent HIV-1 infection in MT4-GFP cells as described in Diamond, and colleagues. HIV-1 replication was monitored using the MT4-gag-GFP clone D3, and MT4 cells with a GFP reporter gene, the expression of which is dependent on the HIV-1 expressed proteins tat and rev. […] Proviral variants used for these studies were generated by site-directed mutagenesis in the WT R8 proviral plasmid. Virus was produced by transfection in 293T cells.
Briefly, MT4-GFP cells were cultured overnight with the appropriate HIV-1 variant at an approximate multiplicity of infection of 0.01. After approximately 19 h of infection, the cells were washed and resuspended in assay media containing 10% normal human serum (NHS) before being added to 384-well compound plates containing 10-point serial 3-fold dilutions of compound. Controls included no inhibitor (dimethyl sulfoxide [DMSO] only) and a combination of 3 antiviral agents, efavirenz, indinavir, and an integrase strand transfer inhibitor, L-002254051, at final concentrations of 4 µM each. The infected or treated cells were cultured at 37 °C, 5% CO2, and 90% humidity until evaluation of infection was conducted at approximately 48 and 72 h post-infection by counting the number of GFP cells in each well using an Acumen eX3 scanner (SPT Labtech; Melbourn, UK). The reproductive ratio, R, was calculated by dividing the number of infected cells at 72 h by the number at 48 h post-infection. The percentage inhibition caused by a test compound was calculated by the following formula:
inhibition = [1−(Rtest compound − Rpositive control)]/(RDMSO only − Rpositive control) × 100%\]
The dose–response curves of each test compound were plotted as percentage inhibition versus the test concentration.

C#C[C@]1(CO)O[C@@H](n2cnc3c(N)nc(F)nc32)C[C@@H]1O [ISL, 4′-ethynyl-2-fluoro-2′-deoxyadenosine, reference compound]
IC50 ([1]; 48 h, read-out: Persistence assay IC50B, PBMCs): 0.0397 ± 0.0239 µM
IC50 ([1]; read-out: Persistence assay IC50A, PBMCs): 0.0008 ± 0.00048 µM
CC50 [2]: > 42 µM
IC50 [3]: 0.0002 µM and 0.00023 µM
IC50 ([4]; Human immunodeficiency virus 1, 48 h, read-out: Persistence assay IC50B, MT4-GFP cells): 0.0255 ± 0.00996 µM
IC50 ([4]; Human immunodeficiency virus 1, read-out: Persistence assay IC50A, MT4-GFP cells): 0.00089 ± 0.00063 µM

Nc1ncnc2c1ncn2[C@H]1CC[C@@H](CO[P@@](=O)(O)O[P@](=O)(O)OP(=O)(O)O)O1 [ddATP, dideoxyadenosine triphosphate, reference compound]
Translocation state of RT [5]: mostly in the post-translocation state
Chain termination mechanism (ICT/DCT) [6]: only inhibits via ICT

(2R,3S,5R)-5-(4-amino-5-methyl-7H-pyrrolo[2,3-d]pyrimidin-7-yl)-2-ethynyl-2-(hydroxymethyl)tetrahydrofuran-3-ol [Compound 8]
Persistence ratio (PBMC) ([1]; IC50B/IC50A, PBMCs): 18
CC50 [7]: 38.8 µM
Persistence ratio (MT4-GFP) [8]: 6
IC50 [9]: 0.0588 µM
IC50 [10]: 0.0854 µM
